The values below come from patent US10750729B2, “Pig for atrioventricular block model, monkey for atrioventricular block model, guinea pig for atrioventricular block model, and use thereof” (Toho University, priority 2012, dated 2020).

“And” between values parts separate entries of the source, which are not always exact repeats. Identical values can stand only once.

Data set [1] has as its system Monkeys (Macaca fascicularis). The experiment in a line: Test Example 2: electrocardiogram of halothane-anesthetized monkeys. The data set is classed as in vivo. Particulars: monkey, 50 min after the administration. On the procedure: Monkeys (Macaca fascicularis, body weight: about 3 kg, male, produced in China, purchased from a domestic breeder) were each anesthetized by intravenously administering thereto sodium thiopental (product of Mitsubishi Tanabe Pharma Corporation) at 25 mg/kg. After insertion of a tracheal cannula, an artificial respirator was used to ventilate it with 100% by volume oxygen and 1% by volume vaporized halothane. Here, the artificial respirator for experimental animals was set to a tidal volume of 20 mL/kg and a respiration rate of 15 strokes/min. Next, a cannula for drug administration was inserted to their left femoral vein. Then, ECG standard limb II leads was continuously recorded.
Each of the monkeys (n=2) of Example 2 was recorded for an electrocardiogram before drug administration.
Fingolimod (FTY720, product of Sigma-Aldrich Inc.) was dissolved in physiological saline (product of Otsuka Pharmaceutical Factory, Inc.) so as to have a concentration of 0.1 mg/mL.
After the evaluation of base control, the cannula for drug administration was inserted, and the above-prepared FTY720 solution was intravenously administered to each of the monkeys (n=2) of Example 2 for 10 min at a dose of 0.1 mg/kg. An electrocardiogram was recorded for 60 min from the start of administration of the FTY720 solution.

In the next data set the test system is Guinea pigs (Hartley). Description: Test Example 3-1: electrocardiogram and aortic pressure of halothane-anesthetized guinea pigs (FTY720). The data set is classed as in vivo. Particulars: guinea pig. On the procedure:
Guinea pigs (Hartley, body weight: 420 g to 650 g, male, obtained from Japan SLC, Inc.) were each anesthetized by intraperitoneally administering thereto sodium thiopental (product of Mitsubishi Tanabe Pharma Corporation) at 50 mg/kg. Next, a tracheal cannula was inserted into each of the guinea pigs. While their body temperature was being maintained at 37° C. with a warming pad, the guinea pigs were allowed to inhale 100% by volume oxygen and 1% by volume vaporized halothane (product of Takeda Pharmaceutical Company Limited.) using an artificial respirator for experimental animals (SN-480-7; product of shimano Co., Ltd.). Here, the artificial respirator for experimental animals was set to a tidal volume of 10 mL/kg and a respiration rate of 60 strokes/min. Next, a cannula for drug administration was inserted to their left femoral vein. In addition, a heparinized catheter for monitoring the blood pressure was inserted to the aorta through the left femoral […]. Then, ECG standard limb II leads was continuously recorded.
Each of the guinea pigs (n=12) of Example 3 was recorded for an electrocardiogram before administration of a drug or a solvent.
FTY720 (product of Sigma-Aldrich Inc.) was dissolved in physiological saline (product of Otsuka Pharmaceutical Factory, Inc.) so as to have a concentration of 0.03 mg/mL.
After the evaluation of base control, the cannula for drug administration was inserted, and the above-prepared FTY720 solution was intravenously administered to each of the guinea pigs (n=4) of Example 3 for 10 min at a dose of 0.01 mg/kg. These guinea pigs were evaluated for parameters by the following evaluation methods at 5 min, 10 min, 15 min, 20 min, 30 min, 45 min or 60 min after the administration of the FTY720 solution.
FTY720 (product of Sigma-Aldrich Inc.) was dissolved in physiological saline (product of Otsuka Pharmaceutical Factory, Inc.) so as to have a concentration of 0.3 mg/mL.
After the evaluation of base control, the cannula for drug administration was inserted, and the above-prepared FTY720 solution was intravenously administered to each of the guinea pigs (n=4) of Example 3 for 10 min at a dose of 0.1 mg/kg. These guinea pigs were evaluated for parameters by the following evaluation methods at 5 min, 10 min, 15 min, 20 min, 30 min, 45 min or 60 min after the administration of the FTY720 solution.
The aortic pressure and the electrocardiogram were monitored using a polygraph system (RM-6000, product of NIHON KOHDEN Co. Ltd.) and analyzed with a full-automated analysis system in real time (WinVAS ver. 3, 1.1R03; product of Physio-Tech Co., Ltd.).
Parameters of the electrocardiogram were measured three times, and the obtained values were averaged. Atrial rate was calculated from PP interval of the electrocardiogram. Ventricular rate was calculated from RR interval of the electrocardiogram.
The measurements in FIGS. 4A to 4E are expressed as mean±SE (n=4). The difference between the parameters was evaluated with one-way repeated measures analysis of variance (ANOVA). It was considered that p<0.05 is statistically significant. In FIG. 4A to 4C and FIG. 4E, “white circle,” “white square” and “white triangle” each mean absence of a significant difference relative to the value of the evaluation of base control (C), and “black circle” and “black square” each mean presence of a significant difference relative to the value of the evaluation of base control (C).
Also, in FIG. 4D, “white circle” means absence of development of atrioventricular block or presence of development of first-degree atrioventricular block, “white square” means presence of development of second-degree atrioventricular block (Wenckebach type), “white triangle” means presence of development of advanced atrioventricular block, “x-mark” means presence of development of third-degree atrioventricular block (complete atrioventricular block), and #1 to 4 refer to each individual.

Where [2] appears, read: 0.1 mg/kg/10 min i.v., individuals #1, #2, 0.1 mg/kg.
The mark [3] stands for this setting: FTY720 0.01 and 0.1 mg/kg/10 min i.v., for 60 min from start.
[4] abbreviates: high-dose 0.1 mg/kg/10 min i.v., n=4.

Regarding `CCCCCCCCc1ccc(CCC(N)(CO)CO)cc1` [FTY720, Fingolimod], in data set [1] (0.1 mg/kg i.v.), the “PR interval change versus base control” value is on record as “prolongation of PR interval was observed”. Moreover, the “Heart rate (HR)” value in data set [1] (0.1 mg/kg/10 min i.v., individuals #1, #2) stood at 105 beats/min. In addition, in data set [1] (setting [2]), the “Heart rate (HR)” value is listed as 104 beats/min; the PR interval is 71 ms and 110 ms. Moreover, in the data set on Guinea pigs (Hartley) (setting [3]), the “change in atrial rate” value is on record as “no significant change” and the “change in blood pressure (MBP)” value is “no significant change”. Also, in the data set on Guinea pigs (Hartley) (high-dose 0.1 mg/kg/10 min i.v.), the “change in QRS width” value is on record as “no significant change”. In addition, in the data set with Guinea pigs (Hartley) (high-dose 0.1 mg/kg/10 min i.v., 45 min after start), the “correspondence of P wave and R wave in the electrocardiogram” value was “the atrium and the ventricle are contracted independently of each other at their own individual rhythms”. Also, the “change in PR interval” value with Guinea pigs (Hartley) (high-dose 0.1 mg/kg/10 min i.v., before development of atrioventricular block) is recorded as “prolonged”. For the same compound, the “change in ventricular rate” value in the data set on Guinea pigs (Hartley) (high-dose 0.1 mg/kg/10 min i.v., from 20 min to 60 min) is recorded as “significant decrease”. The “change in QT interval” value with Guinea pigs (Hartley) (high-dose 0.1 mg/kg/10 min i.v., from 45 min to 60 min) is “prolonged”. Moreover, in the data set with Guinea pigs (Hartley) (setting [4]), the “individuals that developed Wenckebach-type atrioventricular block” value is “one individual” and the “individuals that developed complete atrioventricular block” value is listed as “three individuals out of the four individuals”. Also, the “change in any electrophysiological parameters (PR interval, QRS width, QT interval)” value with Guinea pigs (Hartley) (low-dose 0.01 mg/kg/10 min i.v., at 60 min from start) is “no significant change”. For the same compound, the “change in ventricular rate” value in the data set with Guinea pigs (Hartley) (low-dose 0.01 mg/kg/10 min i.v., for 60 min from start) is given as “no significant change”.
